According to PubChem BioAssay AID256 (DTP/NCI, 2004):
Several values for one entry are separate records, joined by “and”; a condition that tells them apart may be missing. Equal values may be shown once. Inconclusive results and toxic doses are left out.

Tested on: CD2F1 mice, L1210 leukemia ip, survival T/C
Assay: NCI In Vivo Anticancer Drug Screen. Data for tumor model L1210 Leukemia (intraperitoneal) in CD2F1 (CDF1) mice
Details: higher = longer survival
Outline: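 Each value reflects a quotient of treated over vehicle control outcomes in mice with a transplanted tumor.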

[1] = endpoint: median survival time, dose: 12.5 mg/kg/injection, schedule: Q01DX005 (iv), vehicle: other
[2] = endpoint: median survival time, dose: 25.0 mg/kg/injection, schedule: Q01DX005 (iv), vehicle: other
[3] = endpoint: median survival time, dose: 25.0 mg/kg/injection, schedule: Q01DX009 (ip), vehicle: other
[4] = endpoint: mean survival time, dose: 50.0 mg/kg/injection, schedule: Q01DX009 (ip), vehicle: saline with Tween-80
[5] = endpoint: mean survival time, dose: 100.0 mg/kg/injection, schedule: Q01DX009 (ip), vehicle: saline with Tween-80
[6] = endpoint: mean survival time, dose: 100.0 mg/kg/injection, schedule: Q04DX003 (ip), vehicle: saline with Tween-80
[7] = endpoint: mean survival time, dose: 200.0 mg/kg/injection, schedule: Q01DX009 (ip), vehicle: saline with Tween-80
[8] = endpoint: mean survival time, dose: 200.0 mg/kg/injection, schedule: Q04DX003 (ip), vehicle: saline with Tween-80
[9] = endpoint: mean survival time, dose: 100.0 mg/kg/injection, schedule: Q01DX001 (ip), vehicle: saline with Tween-80
[10] = endpoint: mean survival time, dose: 200.0 mg/kg/injection, schedule: Q01DX001 (ip), vehicle: saline with Tween-80
[11] = endpoint: mean survival time, dose: 400.0 mg/kg/injection, schedule: Q04DX003 (ip), vehicle: saline with Tween-80

In the case of `C[C@@](O)(/C=C/[C@H]1CC=CC(=O)O1)[C@@H](C[C@@H](O)\C=C/C=C\C=C\CO)OP(=O)(O)O`, the T/C (endpoint: median survival time, dose: 0.4 mg/kg/injection, schedule: Q01DX005 (iv), vehicle: other) is reported as 109 % of control, the T/C (endpoint: median survival time, dose: 0.78 mg/kg/injection, schedule: Q01DX005 (iv), vehicle: other) is reported as 109 % of control and the T/C (endpoint: median survival time, dose: 1.56 mg/kg/injection, schedule: Q01DX005 (iv), vehicle: other) is reported as 112 % of control. The T/C (endpoint: median survival time, dose: 1.56 mg/kg/injection, schedule: Q01DX005 (iv), vehicle: saline) was 121 % of control, the T/C (endpoint: median survival time, dose: 1.56 mg/kg/injection, schedule: Q01DX009 (ip), vehicle: other) was 243 % of control and the T/C (endpoint: median survival time, dose: 1.56 mg/kg/injection, schedule: Q01DX009 (ip), vehicle: saline) was 216 % of control. The T/C (endpoint: median survival time, dose: 3.12 mg/kg/injection, schedule: Q01DX009 (ip), vehicle: other) was 170 % of control and 191 % of control, the T/C (endpoint: median survival time, dose: 3.12 mg/kg/injection, schedule: Q01DX009 (ip), vehicle: saline) was 204 % of control and the T/C (endpoint: median survival time, dose: 3.13 mg/kg/injection, schedule: Q01DX005 (iv), vehicle: other) was 123 % of control. The T/C (endpoint: median survival time, dose: 3.13 mg/kg/injection, schedule: Q01DX009 (ip), vehicle: other) was 235 % of control, the T/C (endpoint: median survival time, dose: 6.25 mg/kg/injection, schedule: Q01DX005 (iv), vehicle: other) was 162 % of control and the T/C (endpoint: median survival time, dose: 6.25 mg/kg/injection, schedule: Q01DX009 (ip), vehicle: other) was 194 % of control and 207 % of control and 512 % of control. For the same compound, the T/C (endpoint: median survival time, dose: 6.25 mg/kg/injection, schedule: Q01DX009 (ip), vehicle: saline) was 216 % of control, the T/C [1] was 197 % of control and the T/C (endpoint: median survival time, dose: 12.5 mg/kg/injection, schedule: Q01DX005 (iv), vehicle: saline) was 178 % of control. For the same compound, the T/C (endpoint: median survival time, dose: 12.5 mg/kg/injection, schedule: Q01DX009 (ip), vehicle: other) was 117 % of control and 337 % of control, the T/C (endpoint: median survival time, dose: 12.5 mg/kg/injection, schedule: Q01DX009 (ip), vehicle: saline) was 722 % of control and the T/C [2] was 259 % of control. The T/C (endpoint: median survival time, dose: 25.0 mg/kg/injection, schedule: Q01DX005 (iv), vehicle: saline) was 201 % of control, the T/C [3] was 273 % of control and the T/C (endpoint: median survival time, dose: 50.0 mg/kg/injection, schedule: Q01DX005 (iv), vehicle: saline) was 240 % of control.

In the case of `COc1cc2c(cc1OC)C(CCN1C(=O)CCC1=O)=NCC2`, the T/C (endpoint: mean survival time, dose: 50.0 mg/kg/injection, schedule: Q01DX009 (ip), vehicle: saline sonified) is reported as 96 % of control, the T/C (endpoint: mean survival time, dose: 100.0 mg/kg/injection, schedule: Q01DX009 (ip), vehicle: saline sonified) is reported as 102 % of control and the T/C (endpoint: mean survival time, dose: 100.0 mg/kg/injection, schedule: Q04DX003 (ip), vehicle: saline sonified) is reported as 98 % of control. The T/C (endpoint: mean survival time, dose: 200.0 mg/kg/injection, schedule: Q01DX009 (ip), vehicle: saline sonified) was 100 % of control and the T/C (endpoint: mean survival time, dose: 200.0 mg/kg/injection, schedule: Q04DX003 (ip), vehicle: saline sonified) was 103 % of control.

For `Clc1cc(Cl)cc(Nc2nc(C(Cl)(Cl)Cl)nc(C(Cl)(Cl)Cl)n2)c1`, the T/C [4] was 98 % of control, the T/C [5] was 95 % of control and the T/C [6] was 89 % of control. For the same compound, the T/C [7] was 90 % of control and the T/C [8] was 86 % of control.

With `C[CH2][Sn]([CH2]C)([O]S(C)(=O)=O)[O]S(C)(=O)=O` the T/C (endpoint: mean survival time, dose: 0.78 mg/kg/injection, schedule: Q01DX009 (ip), vehicle: saline) was 101 % of control, the T/C (endpoint: mean survival time, dose: 1.56 mg/kg/injection, schedule: Q01DX009 (ip), vehicle: saline) was 107 % of control and the T/C (endpoint: mean survival time, dose: 3.12 mg/kg/injection, schedule: Q01DX009 (ip), vehicle: saline) was 107 % of control. For the same compound, the T/C (endpoint: mean survival time, dose: 6.25 mg/kg/injection, schedule: Q01DX009 (ip), vehicle: saline) was 111 % of control and the T/C (endpoint: mean survival time, dose: 12.5 mg/kg/injection, schedule: Q01DX009 (ip), vehicle: saline) was 114 % of control.

For `CN(C)c1ccc(/C=C2\CCC/C(=C\c3ccc(N(C)C)cc3)C2=O)cc1`, the T/C (endpoint: mean survival time, dose: 100.0 mg/kg/injection, schedule: Q01DX009 (ip), vehicle: Klucel (hydroxypropylcellulose) (HPC)) was 95 % of control, the T/C (endpoint: mean survival time, dose: 200.0 mg/kg/injection, schedule: Q01DX009 (ip), vehicle: Klucel (hydroxypropylcellulose) (HPC)) was 101 % of control and the T/C (endpoint: mean survival time, dose: 400.0 mg/kg/injection, schedule: Q01DX009 (ip), vehicle: Klucel (hydroxypropylcellulose) (HPC)) was 95 % of control.

With `CC(=O)C1CCC2CC3CCCCC3N(C(C)=O)C2C1` (centres undefined) the T/C (endpoint: mean survival time, dose: 50.0 mg/kg/injection, schedule: Q01DX001 (ip), vehicle: saline with Tween-80) was 107 % of control, the T/C [9] was 105 % of control and the T/C [10] was 100 % of control.

`CC(=O)OC(c1ccccc1)C(Cl)(Cl)Cl` (centres undefined) was tested, and the T/C [6] was 100 % of control, the T/C [8] was 105 % of control and the T/C [11] was 105 % of control.

With `Cc1ccc(C)c(NC(=O)c2ccc(Cl)cc2)c1` the T/C [6] was 97 % of control, the T/C [8] was 97 % of control and the T/C [11] was 92 % of control.

With `CCCCOCC(C)O` (centres undefined) the T/C (endpoint: mean survival time, dose: 100.0 mg/kg/injection, schedule: Q01DX009 (ip), vehicle: saline) was 97 % of control, the T/C (endpoint: mean survival time, dose: 200.0 mg/kg/injection, schedule: Q01DX009 (ip), vehicle: saline) was 101 % of control and the T/C (endpoint: mean survival time, dose: 400.0 mg/kg/injection, schedule: Q01DX009 (ip), vehicle: saline) was 100 % of control.

`COc1cc(Cl)ccc1NC(=O)Oc1ccc([N+](=O)[O-])cc1` was tested, and the T/C [4] was 96 % of control, the T/C [5] was 96 % of control and the T/C [7] was 100 % of control.

With `O=[N+]([O-])c1cc(S(=O)(=O)c2ccc(N3CCCC3)c([N+](=O)[O-])c2)ccc1N1CCCC1` the T/C [5] was 102 % of control, the T/C [7] was 95 % of control and the T/C (endpoint: mean survival time, dose: 400.0 mg/kg/injection, schedule: Q01DX009 (ip), vehicle: saline with Tween-80) was 104 % of control.

In the case of `CC1CCCCC1C(C)(C#N)Nc1ccccc1` (centres undefined), the T/C [6] is reported as 103 % of control, the T/C [8] is reported as 104 % of control and the T/C [11] is reported as 97 % of control.

For `Cc1cc(Br)ccc1C(=O)O`, the T/C [9] was 94 % of control, the T/C [10] was 91 % of control and the T/C (endpoint: mean survival time, dose: 400.0 mg/kg/injection, schedule: Q01DX001 (ip), vehicle: saline with Tween-80) was 102 % of control.

`O=C(Nc1ccc(F)cc1)Nc1ccc(F)cc1` was tested, and the T/C (endpoint: mean survival time, dose: 100.0 mg/kg/injection, schedule: Q04DX002 (ip), vehicle: saline with Tween-80) was 94 % of control and the T/C (endpoint: mean survival time, dose: 200.0 mg/kg/injection, schedule: Q04DX002 (ip), vehicle: saline with Tween-80) was 87 % of control.

For `CC1=NCCc2c1cc1c([nH]c3ccccc31)c2C`, the T/C (endpoint: mean survival time, dose: 44.0 mg/kg/injection, schedule: Q01DX009 (ip), vehicle: saline with Tween-80) was 114 % of control and the T/C (endpoint: mean survival time, dose: 67.0 mg/kg/injection, schedule: Q01DX009 (ip), vehicle: saline with Tween-80) was 96 % of control.

With `O=C(Nc1ccccc1)c1c(O)[nH]c(=S)[nH]c1=O` the T/C (endpoint: median survival time, dose: 6.2 mg/kg/injection, schedule: Q01DX005 (iv), vehicle: other) was 124 % of control, the T/C (endpoint: median survival time, dose: 6.2 mg/kg/injection, schedule: Q01DX005 (iv), vehicle: saline with Tween-80) was 124 % of control and the T/C (endpoint: median survival time, dose: 6.25 mg/kg/injection, schedule: Q01DX009 (ip), vehicle: saline with Tween-80) was 116 % of control. The T/C [1] was 124 % of control, the T/C (endpoint: median survival time, dose: 12.5 mg/kg/injection, schedule: Q01DX005 (iv), vehicle: saline with Tween-80) was 124 % of control and the T/C (endpoint: median survival time, dose: 20.0 mg/kg/injection, schedule: Q01DX009 (ip), vehicle: saline with Tween-80) was 119 % of control. The T/C [2] was 158 % of control, the T/C [3] was 197 % of control and the T/C (endpoint: median survival time, dose: 25.0 mg/kg/injection, schedule: Q01DX009 (ip), vehicle: water) was 124 % of control. The T/C (endpoint: median survival time, dose: 30.0 mg/kg/injection, schedule: Q01DX009 (ip), vehicle: saline with Tween-80) was 162 % of control, the T/C (endpoint: median survival time, dose: 44.0 mg/kg/injection, schedule: Q01DX009 (ip), vehicle: saline with Tween-80) was 157 % of control and 168 % of control and the T/C (endpoint: median survival time, dose: 50.0 mg/kg/injection, schedule: Q01DX009 (ip), vehicle: other) was 114 % of control. For the same compound, the T/C (endpoint: median survival time, dose: 50.0 mg/kg/injection, schedule: Q01DX009 (ip), vehicle: water) was 204 % of control and the T/C (endpoint: median survival time, dose: 67.0 mg/kg/injection, schedule: Q01DX009 (ip), vehicle: saline with Tween-80) was 182 % of control and 192 % of control.

`Cc1ncc(COP(=O)(O)O)c(C=NC(C)C(=O)O)c1O.O.[Cu]` (centres undefined) was tested, and the T/C (endpoint: mean survival time, dose: 6.25 mg/kg/injection, schedule: Q01DX001 (ip), vehicle: saline with Tween-80) was 95 % of control, the T/C (endpoint: mean survival time, dose: 12.5 mg/kg/injection, schedule: Q01DX001 (ip), vehicle: saline with Tween-80) was 92 % of control and the T/C (endpoint: mean survival time, dose: 25.0 mg/kg/injection, schedule: Q01DX001 (ip), vehicle: saline with Tween-80) was 103 % of control.
